Experimental data as given in the NIST ThermoML archive (doi:10.1016/j.fluid.2006.09.017).
± gives the expanded uncertainty stated by the source.

Conditions: Liquid

| Compound | vapor or sublimation pressure (258.15 K) [kPa] | vapor or sublimation pressure (263.15 K) [kPa] | vapor or sublimation pressure (268.15 K) [kPa] | vapor or sublimation pressure (275.15 K) [kPa] | vapor or sublimation pressure (283.15 K) [kPa] | vapor or sublimation pressure (293.15 K) [kPa] | vapor or sublimation pressure (303.15 K) [kPa] | vapor or sublimation pressure (313.15 K) [kPa] | vapor or sublimation pressure (323.15 K) [kPa] | vapor or sublimation pressure (333.15 K) [kPa] | vapor or sublimation pressure (343.15 K) [kPa] |
| --- | --- | --- | --- | --- | --- | --- | --- | --- | --- | --- | --- |
| FCC(F)(F)F [1,1,1,2-tetrafluoroethane] | 163.9 ± 5.9 | 200.6 ± 6.8 | 243.3 ± 7.9 | 314.6 ± 10 | 414.6 ± 13 | 571.7 ± 18 | 770.2 ± 24 | 1017 ± 32 | 1318 ± 41 | 1682 ± 52 | 2117 ± 66 |
| FCF [difluoromethane] | 488.1 ± 15 | – | 690.6 ± 22 | 866.5 ± 27 | 1107 ± 35 | 1475 ± 46 | 1928 ± 60 | 2478 ± 77 | 3141 ± 98 | 3933 ± 120 | 4877 ± 150 |
